Measurements taken from US6458781B1, “Substituted diarylalkyl amides as calcium channel antagonists” (priority 1998, dated 2002).
Counter-ions that a name gives are not always drawn.

How the values were obtained:
[1] = test system: acetic acid-induced writhing in Swiss-Webster mice; test: Anti-writhing test in mice (AW); format: in vivo; settings: 10 mg/kg
Text: Anti-Writhing Test in Mice (AW) Test Protocol
The purpose of this test is to evaluate drugs for analgesic-like activity. The AW test determines the effect of drugs on the response to a presumed painful stimulus in mice and is used as a preliminary in vivo procedure for the identification of potential analgesic agents.
Known analgesics with low, moderate, or high efficacy in man allow mice to tolerate intra-peritoneal administration of dilute acetic acid as evidenced by lesser incidence of writhing movements. The AW test measures the nociceptive response to acetic acid in mice and provides an objective, reliable, and quantitative estimate of efficacy and potency of potential analgesic compounds. This test serves as a preclinical predictor of analgesic activity.
Subjects are male Swiss-Webster mice (25-35 g).
Compounds are dissolved or suspended in physiological saline containing 2% Emulphor. Suspensions are subjected to ultrasonication for 3 minutes. Drug doses are expressed as the active moiety and are normally administered to mice (10, 30, and 100 mg/kg IP, SC, PO, or IM) in a volume of 10 mL/kg, 1 hour prior to testing; ICV doses (in μg/kg) are administered in a volume of 0.5 mL/kg, 5 minutes prior to testing. Animals dosed PO are fasted for 16 hours prior to dosing. Groups of eight mice are tested with each dose or the vehicle solution (control group).
Mice are treated with a dilute solution of acetic acid (0.6%, 10 mL/kg IP) which elicits writhing. In four successive trials, one pair of mice from each treatment group is placed in one of four adjacent clear plexiglas chambers (4 in×4 in×4 in). This allows the simultaneous observation of four pairs of mice representing all treatments and controls throughout the test. Writhing movements (abdominal contractions, stretching of the torso and hind legs, and concave arching of the back) are counted for 5 minutes commencing 7 minutes after acetic acid administration.
Drug effects on acetic acid-induced writhing are expressed as percent suppression of writhing relative to the vehicle-treated control group run in parallel with treated animals. The writhing tallies from pairs of animals are summed for each treatment and are divided by the summed writhing in the control group. The ED50s for suppression of writhing are determined by nonlinear regression analysis.

[2] = molecular target: T1, N-type calcium channels in IMR32 human neuroblastoma cells (Homo sapiens, UniProt Q00975); test: FLPIMR assay (FLIPR, IMR32 cells); format: cell-based; settings: nitrendipine present, read-out: FLP IMR IC50
T1 construct: expressing neuronal N-type calcium channels upon differentiation, was used for this assay; host or cells: IMR32 human neuroblastoma cells differentiated with dibutyryl cAMP and 5-bromo-2-deoxyuridine
Description: In Vitro Protocol: FLPIMR Assays
Calcium flux through voltage-sensitive calcium channels was assessed by time-resolved monitoring of the fluorescence of pre-loaded intracellular calcium-sensitive dyes using FLIPR, a fluorescent image plate reader (Molecular Devices Co.). The IMR32 human neuroblastoma cell line (ATCC, CRL-127), expressing neuronal N-type calcium channels upon differentiation, was used for this assay. IMR32 cells were grown in MEM media (Gibco BRL, 11095-080), supplemented with 10% fetal bovine serum (Gibco BRL, 26140-087), 1% antibiotic-antimycotic (Gibco BRL, 15240-096), 1% L-glutamine (Gibco BRL, 25030-032). Cells, grown to confluency, were differentiated for a period of 7-10 days, or longer, by adding 1 mM dibutyryl cAMP (Sigma D-0627) and 2.5 μM 5-bromo-2-deoxyuridine (Sigma B-9285) to the media. The differentiation media was fed continuously to cells until the cells were used in an experiment.
Differentiated cells were removed from T150 flasks by aspirating media and adding 10 mL harvesting solution consisting of 0.5 mM EDTA in DPBS without calcium or magnesium (Gibco BRL, 14190-144). Cells were then centrifuged at 1500 rpm (≈500 g) for 3 minutes in a Beckman tabletop centrifuge in order to remove the harvesting solution. Cells were resuspended in 10 mL of media containing 1 μM Oregon Green 488 Bapta-1 dye (Molecular Probes, O-6807) and placed in a 37° C. shaking waterbath for 1 hour. The dye-containing media was then diluted with 40 mL buffer (composition in mM: 1.25 CaCl2, 1.2 MgSO4, 11 glucose, 10 HEPES, 3.0 KCl, 137.0 NaCl, pH 7.4 with Tris base) and cells were centrifuged at 1500 rpm (≈500 g) for 3 minutes. Cells were resuspended and washed a second time with 40-50 mL incubation buffer. After centrifugation, cells were resuspended and 200 μL aliquots were plated on black-sided 96-well plates (Costar, 3603) for use in FLIPR. The plates of cells were centrifuged at 750 rpm (≈100 g) for 1.5 minutes to settle the cells to the bottom of the wells. Cells were given one final wash at setting BF1F in a Denley Cellwash (Labsystems, CW018B). The residual buffer volume was adjusted to 50 μL. A 5-minute drug-preincubation period at 35° C. was initiated when 50 μL of drug-containing buffer was pipetted into the cell plate with the 96-well pipettor integrated in the FLIPR apparatus. Nitrendipine, at a concentration of 4 μM, was included in this buffer, in addition to compounds of the present invention at various concentrations. […] Fluorescent counts were monitored at 20 s intervals for 360 s, beginning 60 s prior to the delivery of drug-containing buffer. Following drug addition, 100 μL aliquots of a high K^+, depolarizing stimulus (composition in mM: 1.25 CaCl2, 1.2 MgSO4, 11 glucose, 10 HEPES, 140.0 KCl, pH 7.4 with Tris base) were added to each well, and fluorescence was monitored at 1 s intervals for 120 s, beginning 10 s prior to the stimulus addition. CCD camera exposure time was 0.4 s; laser excitation was at 488 nm with a power of 0.2-0.5W; and a 510 to 560 nm bandpass interference filter preceded the camera.
Data was analyzed as a summation of fluorescent counts above basal during the stimulation period (an approximation of area under the curve), after normalizing the data with a spatial uniformity correction (for variations in laser illumination and cell density) and a negative control correction (zero calcium increase defined as the fluorescence reading in the presence of saturating pharmacologic block of the N-type calcium channel). […] This component was not included in any calculations.
Drug effects were expressed as percent inhibition of fluorescence from an average of 8 K^+-stimulated wells which were pre-treated in the drug incubation period with buffer only. Data was analyzed using FLIPR software and Microsoft Excel spreadsheet software.

T1 sequence (Q00975 whole entry): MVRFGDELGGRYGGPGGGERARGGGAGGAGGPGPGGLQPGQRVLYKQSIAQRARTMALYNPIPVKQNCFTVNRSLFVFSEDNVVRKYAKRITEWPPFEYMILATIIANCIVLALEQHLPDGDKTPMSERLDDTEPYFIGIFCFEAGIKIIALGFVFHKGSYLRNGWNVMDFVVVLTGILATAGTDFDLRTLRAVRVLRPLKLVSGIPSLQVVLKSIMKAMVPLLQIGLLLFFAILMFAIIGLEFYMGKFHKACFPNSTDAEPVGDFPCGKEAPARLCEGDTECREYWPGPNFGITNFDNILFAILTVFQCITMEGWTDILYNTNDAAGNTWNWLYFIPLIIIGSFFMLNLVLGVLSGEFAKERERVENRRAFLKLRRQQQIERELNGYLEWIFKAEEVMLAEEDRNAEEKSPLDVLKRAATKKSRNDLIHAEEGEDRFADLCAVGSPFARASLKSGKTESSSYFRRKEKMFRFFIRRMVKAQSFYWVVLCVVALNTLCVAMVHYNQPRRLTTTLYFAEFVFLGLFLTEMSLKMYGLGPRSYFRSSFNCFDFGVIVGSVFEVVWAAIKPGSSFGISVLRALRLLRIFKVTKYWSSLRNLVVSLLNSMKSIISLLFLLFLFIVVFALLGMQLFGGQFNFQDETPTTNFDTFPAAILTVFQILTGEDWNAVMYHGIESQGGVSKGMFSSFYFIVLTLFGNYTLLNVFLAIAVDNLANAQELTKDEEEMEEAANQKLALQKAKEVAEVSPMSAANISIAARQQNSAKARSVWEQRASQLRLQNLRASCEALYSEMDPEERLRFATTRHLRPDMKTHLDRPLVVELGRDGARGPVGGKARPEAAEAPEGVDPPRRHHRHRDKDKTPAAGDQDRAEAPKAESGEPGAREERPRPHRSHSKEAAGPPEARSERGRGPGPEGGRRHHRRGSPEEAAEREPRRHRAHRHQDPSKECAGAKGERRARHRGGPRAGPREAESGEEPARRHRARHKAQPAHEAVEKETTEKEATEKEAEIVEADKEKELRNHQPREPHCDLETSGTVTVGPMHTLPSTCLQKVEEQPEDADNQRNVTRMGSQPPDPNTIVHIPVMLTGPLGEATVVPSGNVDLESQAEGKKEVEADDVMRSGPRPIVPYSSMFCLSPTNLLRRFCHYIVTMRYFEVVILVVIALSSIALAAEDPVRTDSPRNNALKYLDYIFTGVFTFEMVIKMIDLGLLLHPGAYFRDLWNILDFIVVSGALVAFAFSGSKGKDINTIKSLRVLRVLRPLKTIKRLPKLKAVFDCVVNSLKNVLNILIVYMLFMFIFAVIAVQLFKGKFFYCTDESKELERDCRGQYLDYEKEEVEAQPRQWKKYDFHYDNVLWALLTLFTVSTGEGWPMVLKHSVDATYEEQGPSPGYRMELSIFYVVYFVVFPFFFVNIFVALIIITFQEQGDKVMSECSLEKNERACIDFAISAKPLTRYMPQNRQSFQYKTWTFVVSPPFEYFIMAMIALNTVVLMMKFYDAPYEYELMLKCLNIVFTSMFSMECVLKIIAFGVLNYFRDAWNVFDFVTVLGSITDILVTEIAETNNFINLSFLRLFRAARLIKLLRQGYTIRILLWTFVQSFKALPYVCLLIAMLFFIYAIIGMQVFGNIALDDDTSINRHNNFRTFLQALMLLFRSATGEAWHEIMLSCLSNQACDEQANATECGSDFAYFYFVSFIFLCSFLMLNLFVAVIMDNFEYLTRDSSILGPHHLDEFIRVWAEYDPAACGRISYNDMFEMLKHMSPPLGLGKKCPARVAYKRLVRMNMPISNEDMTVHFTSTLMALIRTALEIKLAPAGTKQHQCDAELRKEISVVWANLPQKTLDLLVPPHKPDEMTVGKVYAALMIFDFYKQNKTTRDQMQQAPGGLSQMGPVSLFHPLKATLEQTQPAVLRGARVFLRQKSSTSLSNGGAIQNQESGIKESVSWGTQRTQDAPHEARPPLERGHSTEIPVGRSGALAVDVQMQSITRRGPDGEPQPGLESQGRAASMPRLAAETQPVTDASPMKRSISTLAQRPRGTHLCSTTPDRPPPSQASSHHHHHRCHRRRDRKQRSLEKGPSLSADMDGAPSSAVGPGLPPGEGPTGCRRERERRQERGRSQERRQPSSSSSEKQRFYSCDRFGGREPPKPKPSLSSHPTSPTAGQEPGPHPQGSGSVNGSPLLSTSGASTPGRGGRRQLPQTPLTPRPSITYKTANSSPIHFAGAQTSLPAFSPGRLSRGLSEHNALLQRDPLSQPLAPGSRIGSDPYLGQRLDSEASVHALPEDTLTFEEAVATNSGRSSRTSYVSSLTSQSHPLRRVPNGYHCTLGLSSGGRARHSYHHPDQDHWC
T1 sequence (P54289 25-956 partner limits assumed): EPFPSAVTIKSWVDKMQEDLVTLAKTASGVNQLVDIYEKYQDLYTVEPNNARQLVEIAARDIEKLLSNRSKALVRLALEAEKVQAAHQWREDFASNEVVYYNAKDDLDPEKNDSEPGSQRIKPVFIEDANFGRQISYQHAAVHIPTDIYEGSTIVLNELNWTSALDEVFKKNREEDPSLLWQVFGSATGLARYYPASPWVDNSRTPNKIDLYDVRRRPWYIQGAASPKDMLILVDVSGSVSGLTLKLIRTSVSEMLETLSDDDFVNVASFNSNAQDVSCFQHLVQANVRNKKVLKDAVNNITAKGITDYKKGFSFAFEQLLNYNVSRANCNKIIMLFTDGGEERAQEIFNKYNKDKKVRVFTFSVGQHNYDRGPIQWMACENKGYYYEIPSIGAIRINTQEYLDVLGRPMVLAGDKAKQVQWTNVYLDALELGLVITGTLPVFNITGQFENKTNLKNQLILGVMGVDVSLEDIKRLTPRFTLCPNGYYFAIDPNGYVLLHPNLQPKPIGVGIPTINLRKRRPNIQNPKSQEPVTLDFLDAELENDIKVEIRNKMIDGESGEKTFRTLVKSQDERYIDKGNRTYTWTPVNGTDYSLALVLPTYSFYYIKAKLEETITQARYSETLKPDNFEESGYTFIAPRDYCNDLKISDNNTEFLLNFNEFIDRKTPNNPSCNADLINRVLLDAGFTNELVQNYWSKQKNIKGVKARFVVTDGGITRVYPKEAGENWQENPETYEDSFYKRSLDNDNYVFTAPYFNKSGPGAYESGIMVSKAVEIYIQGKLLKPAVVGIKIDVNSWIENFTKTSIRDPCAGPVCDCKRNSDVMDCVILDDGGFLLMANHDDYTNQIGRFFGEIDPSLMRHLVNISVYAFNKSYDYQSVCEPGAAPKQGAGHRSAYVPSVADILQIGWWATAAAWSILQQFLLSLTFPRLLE
T1 sequence (P54289 957-1103 partner limits assumed): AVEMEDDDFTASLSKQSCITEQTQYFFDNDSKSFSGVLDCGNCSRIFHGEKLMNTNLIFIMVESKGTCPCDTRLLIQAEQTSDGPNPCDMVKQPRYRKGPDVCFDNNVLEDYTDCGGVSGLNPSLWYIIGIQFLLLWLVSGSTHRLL
T1 sequence (Q02641 whole entry partner): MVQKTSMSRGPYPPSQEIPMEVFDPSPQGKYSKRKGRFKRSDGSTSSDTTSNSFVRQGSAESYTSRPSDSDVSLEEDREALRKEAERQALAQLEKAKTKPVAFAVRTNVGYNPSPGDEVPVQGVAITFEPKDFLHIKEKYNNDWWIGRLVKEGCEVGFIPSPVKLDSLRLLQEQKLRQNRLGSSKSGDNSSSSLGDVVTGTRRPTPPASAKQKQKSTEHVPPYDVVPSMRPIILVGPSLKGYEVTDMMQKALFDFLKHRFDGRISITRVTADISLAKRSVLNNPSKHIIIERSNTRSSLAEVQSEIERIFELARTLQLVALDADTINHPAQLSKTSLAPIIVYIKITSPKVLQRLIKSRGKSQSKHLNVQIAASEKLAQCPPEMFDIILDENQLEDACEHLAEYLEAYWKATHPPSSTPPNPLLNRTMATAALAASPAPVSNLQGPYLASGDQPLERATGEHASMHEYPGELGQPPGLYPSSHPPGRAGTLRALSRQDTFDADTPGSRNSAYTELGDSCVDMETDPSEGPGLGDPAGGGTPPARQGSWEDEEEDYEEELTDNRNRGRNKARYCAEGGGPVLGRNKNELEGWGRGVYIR

Compound | Anti-Writhing % Protection (dose) [1] | IC50 [2]
CN[C@H](CC(C)C)C(=O)NCCCC(c1ccc(F)cc1)c1ccc(F)cc1 [Example 71, (R)-4-Methyl-2-methylamino-pentanoic acid [4,4-bis-(4-fluorophenyl)-butyl]-amide monohydrochloride] | 33.9% @ 10 mg/kg | 2500 nM
CC(C)C[C@H](O)C(=O)NCCCC(c1ccc(F)cc1)c1ccc(F)cc1 [Example 72, (S)-2-Hydroxy-4-methyl-pentanoic acid [4,4-bis-(4-fluoro-phenyl)-butyl]-amide] | – | 1900 nM
CN[C@H](C(=O)NCCCC(c1ccc(F)cc1)c1ccc(F)cc1)C(C)C [Example 73, (S)-3-Methyl-2-methylamino-butanoic acid [4,4-bis-(4-fluorophenyl)-butyl]-amide monohydrochloride] | 90.4% @ 10 mg/kg | 3900 nM
CNCC(=O)NCCCC(c1ccc(F)cc1)c1ccc(F)cc1 [Example 74, N-[4,4-Bis-(4-fluoro-phenyl)-butyl]-2-methylamino-acetamide] | – | 2900 nM
CN[C@@H](CNCCCC(c1ccc(F)cc1)c1ccc(F)cc1)CC(C)C [Example 77, (R)-N^1-[4,4-Bis-(4-fluoro-phenyl)-butyl]-4-N^2-dimethyl-pentane-1,2-diamine] | 43.4% @ 10 mg/kg | 2200 nM
CC(C)CN(C)CC(=O)NCCCC(c1ccc(F)cc1)c1ccc(F)cc1 [Example 78, N-[4,4-Bis-(4-fluoro-phenyl)-butyl]-2-(isobutyl-methyl-amino)-acetamide] | 0% @ 10 mg/kg | 1600 nM
(S)-N^1-[4,4-Bis-(4-fluoro-phenyl)-butyl]-4-N^2-dimethyl-pentane-1,2-diamine [Example 76] | 20.9% @ 10 mg/kg | 2200 nM
